Results published in article PMC2810552 (Journal of medicinal chemistry, 2009).
Like-named read-outs stand apart in the source and are kept apart here.

Columns and labels:
[1] = molecular target: T1, Gal4DBD-GRLBD-VP16 fusion protein in HeLa cells (Homo sapiens, UniProt P04150); format: cell-based; conditions: for Luc activity induced (in words): up to 6 µM
T1 sequence (P04150 524-758 limits assumed): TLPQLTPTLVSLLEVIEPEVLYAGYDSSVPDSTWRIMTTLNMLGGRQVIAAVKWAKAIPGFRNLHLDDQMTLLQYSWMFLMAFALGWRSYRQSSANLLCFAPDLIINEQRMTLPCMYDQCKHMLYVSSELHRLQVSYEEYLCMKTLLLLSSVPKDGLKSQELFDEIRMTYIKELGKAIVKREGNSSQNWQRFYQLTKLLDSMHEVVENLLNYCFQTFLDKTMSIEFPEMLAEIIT

[2] = Solubility limit observed in the Luc assay; format: physicochemical; conditions: cell-based Luc induction (reporter) assay in HeLa cells
[3] = molecular target: T2, breast cancer cell line MCF7 (Homo sapiens, UniProt P04150); assay: Cell-based functional permeability assay: luciferase reporter in MCF7 cells
T2 sequence (P04150 524-758 limits assumed): T1 sequence (P04150 524-758 limits assumed)

[4] = molecular target: T1, Gal4DBD-GRLBD-VP16 fusion protein in HeLa cells; conditions: cited from earlier work

C[C@H]1C[C@@H]2[C@H]3CCC4=CC(=O)C=C[C@@]4(C)[C@]3(F)[C@H](O)C[C@@]2(C)[C@]1(O)C(=O)NCCNC(=O)c1cc(NC(=O)c2cc(NC(=O)c3cc(NC(=O)c4cc(NC(=O)CCCNC(=O)c5cc(NC(=O)c6cc(NC(=O)c7cc(NC(=O)c8nccn8C)cn7C)cn6C)cn5C)cn4C)cn3C)cn2C)cn1C [ImPy7γ-Et-Oxdex (24), ImPy7γ-Et-Oxdex]
Luc induction at 10 µM, times lower than that of ImPy2-Et-Oxdex [1]: 4 times | Luc induction at 10 µM, times lower than that of ImPy-Et-Oxdex [1]: 7 times | solubility [2]: ≤ 10 µM

C[C@H]1C[C@@H]2[C@H]3CCC4=CC(=O)C=C[C@@]4(C)[C@]3(F)[C@H](O)C[C@@]2(C)[C@]1(O)C(=O)CSCCNC(=S)NCCNC(=O)c1cc(NC(=O)c2cc(NC(=O)c3cc(NC(=O)c4cc(NC(=O)CCCNC(=O)c5cc(NC(=O)c6cc(NC(=O)c7nccn7C)cn6C)cn5C)cn4C)cn3C)cn2C)cn1C [ImPy6γ-Et-Sdex (17), ImPy6γ-Et-Sdex]
Luc activity induced (in words) [1]: higher levels compared to ImPy4γ-Et-Sdex (19)

C[C@H]1C[C@@H]2[C@H]3CCC4=CC(=O)C=C[C@@]4(C)[C@]3(F)[C@H](O)C[C@@]2(C)[C@]1(O)C(=O)CSCCNC(=S)NCCNC(=O)c1cc(NC(=O)c2cc(NC(=O)c3nccn3C)cn2C)cn1C [ImPy2-Et-Sdex (22), ImPy2-Et-Sdex]
concentration at which maximum Luc induction was achieved [1]: 6 µM

C[C@H]1C[C@@H]2[C@H]3CCC4=CC(=O)C=C[C@@]4(C)[C@]3(F)[C@H](O)C[C@@]2(C)[C@]1(O)C(=O)CSCCNC(=S)NCCNC(=O)c1cc(NC(=O)c2cc(NC(=O)c3cc(NC(=O)c4cc(NC(=O)CCCNC(=O)c5nccn5C)cn4C)cn3C)cn2C)cn1C [ImPy4γ-Et-Sdex (19), ImPy4γ-Et-Sdex]
Luc activity induced (in words) [1]: lowest Luc activity among all Sdex conjugates

C[C@H]1C[C@@H]2[C@H]3CCC4=CC(=O)C=C[C@@]4(C)[C@]3(F)[C@H](O)C[C@@]2(C)[C@]1(O)C(=O)CSCCNC(=S)NCCNC(=O)c1cc(NC(=O)c2cc(NC(=O)c3cc(NC(=O)c4nccn4C)cn3C)cn2C)cn1C [ImPy3-Et-Sdex (21), ImPy3-Et-Sdex]
Luc activity induced (in words) [1]: did not achieve the maximum induction at 6 µM

C[C@H]1C[C@@H]2[C@H]3CCC4=CC(=O)C=C[C@@]4(C)[C@]3(F)[C@H](O)C[C@@]2(C)[C@]1(O)C(=O)NCCNC(=O)c1cc(NC(=O)c2nccn2C)cn1C [ImPy-Et-Oxdex (27), ImPy-Et-Oxdex]
concentration at which maximum Luc induction was achieved [1]: ~20 µM

C[C@H]1C[C@@H]2[C@H]3CCC4=CC(=O)C=C[C@@]4(C)[C@]3(F)[C@H](O)C[C@@]2(C)[C@]1(O)C(=O)CSCCNC(=S)NCCNC(=O)c1cc(NC(=O)c2cncn2C)cn1C [ImPy-Et-Sdex (23), ImPy-Et-Sdex]
maximum Luc induction [1]: 3700 fold | EC50 [3]: 940 nM

C[C@H]1C[C@@H]2[C@H]3CCC4=CC(=O)C=C[C@@]4(C)[C@]3(F)[C@H](O)C[C@@]2(C)[C@]1(O)C(=O)CSCCNC(=S)NCCNC(=O)c1cc(NC(=O)c2cc(NC(=O)c3cc(NC(=O)c4cc(NC(=O)CCCNC(=O)c5cc(NC(=O)c6nccn6C)cn5C)cn4C)cn3C)cn2C)cn1C [ImPy5γ-Et-Sdex (18), ImPy5γ-Et-Sdex]
Luc activity induced (in words) [1]: higher levels compared to ImPy4γ-Et-Sdex (19)

C[C@H]1C[C@@H]2[C@H]3CCC4=CC(=O)C=C[C@@]4(C)[C@]3(F)[C@H](O)C[C@@]2(C)[C@]1(O)C(=O)CSCCNC(=S)NCCNC(=O)c1cc(NC(=O)c2cc(NC(=O)c3cc(NC(=O)c4cc(NC(=O)c5nccn5C)cn4C)cn3C)cn2C)cn1C [ImPy4-Et-Sdex (20), ImPy4-Et-Sdex]
Luc activity induced (in words) [1]: did not achieve the maximum induction at 6 µM

C[C@H]1C[C@@H]2[C@H]3CCC4=CC(=O)C=C[C@@]4(C)[C@]3(F)[C@H](O)C[C@@]2(C)[C@]1(O)C(=O)NCCNC(=O)c1cc(NC(=O)c2cc(NC(=O)c3cc(NC(=O)c4nccn4C)cn3C)cn2C)cn1C [ImPy3-Et-Oxdex (25), ImPy3-Et-Oxdex]
Luc induction at 10 µM, times lower than that of ImPy2-Et-Oxdex [1]: 4 times | Luc induction at 10 µM, times lower than that of ImPy-Et-Oxdex [1]: 7 times | solubility [2]: ≤ 10 µM

CC(=O)NCCCN(C)CCCNC(=S)NCCSCC(=O)[C@@]1(O)[C@H](C)C[C@H]2[C@@H]3CCC4=CC(=O)C=C[C@]4(C)[C@@]3(F)[C@@H](O)C[C@@]21C [Ac-Da-Sdex (28), Ac-Da-Sdex]
concentration at which maximum Luc induction was achieved [1]: 6 µM | maximum Luc induction [1]: 3,000 fold

CC(=O)NCCNC(=S)NCCSCC(=O)[C@@]1(O)[C@H](C)C[C@H]2[C@@H]3CCC4=CC(=O)C=C[C@]4(C)[C@@]3(F)[C@@H](O)C[C@@]21C [Ac-Et-Sdex (15), Ac-Et-Sdex]
concentration at which maximum Luc induction was achieved [1]: 0.6 µM | EC50 [3]: 250 nM | concentration at which maximum Luc induction was achieved ([3]; MCF7 cells): 1 µM | maximum Luc induction ([3]; MCF7 cells): 1,200 fold

C[C@H]1C[C@@H]2[C@H]3CCC4=CC(=O)C=C[C@@]4(C)[C@]3(F)[C@H](O)C[C@@]2(C)[C@]1(O)C(=O)CSCCNC(=S)NCCNC(=O)c1cc(NC(=O)c2cc(NC(=O)c3cc(NC(=O)c4cc(NC(=O)CCCNC(=O)c5cc(NC(=O)c6cc(NC(=O)c7cc(NC(=O)c8nccn8C)cn7C)cn6C)cn5C)cn4C)cn3C)cn2C)cn1C [ImPy7γ-Et-Sdex (16), ImPy7γ-Et-Sdex]
Luc activity induction at 6 µM ([1]; 6 µM): 1,500 fold | Luc activity induced (in words) [1]: higher levels compared to ImPy4γ-Et-Sdex (19) | Luc activity / cellular uptake (in words) ([3]; MCF7 cells): modest improvement of cellular uptake

C[C@@H]1C[C@H]2[C@@H]3CCC4=CC(=O)C=C[C@]4(C)[C@@]3(F)[C@@H](O)C[C@]2(C)[C@@]1(O)C(=O)CSCCNC(=S)NCCCN(C)CCCNC(=O)CCNC(=O)c1cc(NC(=O)c2cc(NC(=O)c3cc(NC(=O)c4cc(NC(=O)CCCNC(=O)c5cc(NC(=O)c6cc(NC(=O)c7cc(NC(=O)c8nccn8C)cn7C)cn6C)cn5C)cn4C)cn3C)cn2C)cn1C [ImPy7γ-βDa-Sdex (6), ImPy7γ-βDa-Sdex]
Luc activity induced (in words) ([4]; cell-based functional assay): modest Luc activity

C[C@@H]1C[C@H]2[C@@H]3CCC4=CC(=O)C=C[C@]4(C)[C@@]3(F)[C@@H](O)C[C@]2(C)[C@@]1(O)C(N)=O [Oxdex-CONH2 (4), Oxdex-CONH2, reference compound]
EC50 ([4]; read-out: EC50 of Luc induction, HeLa cells): 35000 ± 3000 nM
